What follows are compounds tested against T1, Cys12 of the KRAS 4B G12C protein (Homo sapiens, UniProt P01116, G12C) (assay: In vitro covalent adduct formation (CAF) assay, LC-MS intact mass). Conditions: 10 uM compound, 60 min.
T1 construct: This protein contained 188 amino acids in total, including an N-terminal 6-Histidine tag; made in house; host or cells: E. coli BL21
Format: binding
In short: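 GDP-loaded (>95%) His-TEV-tagged KRAS 4B G12C (residues 1–169), 5 μM in TBS pH 7.4, incubated with 10 μM compound (4% DMSO) at 22° C for one hour. Intact-protein LC-MS gave free:adduct ratios, reported as percent protein modified; duplicate runs.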

Row | % CAF 10 uM @ 60 min [%] | SMILES
1 | 95.1 | [2H]C([2H])([2H])OC[C@H]1CSc2c(-c3ccc(F)cc3F)c(C(F)(F)F)cc3c(N4C[C@@H](C)N(C(=O)C=C)[C@@H](C)C4)nc(=O)n1c23 (atropisomer, axis not shown) [Example 1423, (3S,10R)-7-((3S,5R)-4-acryloyl-3,5-dimethylpiperazin-1-yl)-10-(2,4-difluorophenyl)-3-((methoxy-d3)methyl)-9-(trifluoromethyl)-2,3-dihydro-5H-[1,4]thiazino[2,3,4-ij]quinazolin-5-one]
2 | 92.5 | C=CC(=O)N1[C@H](C)CN(c2nc(=O)n3c4c(c(-c5cccc6cnn(C)c56)c(C(F)(F)F)cc24)SC[C@@H]3CN2C[C@@H]3C[C@H]2CO3)C[C@@H]1C [Example 1385, (3S)-3-(((1S,4S)-2-oxa-5-azabicyclo[2.2.1]heptan-5-yl)methyl)-7-((3S,5R)-4-acryloyl-3,5-dimethylpiperazin-1-yl)-10-(1-methyl-1H-indazol-7-yl)-9-(trifluoromethyl)-2,3-dihydro-5H-[1,4]thiazino[2,3,4-ij]quinazolin-5-one]
3 | 74.3 | C=CC(=O)N1C[C@H](C)N(c2nc(=O)n3c4c(c(-c5cc(Cl)c(F)cc5F)c(C(F)(F)F)cc24)SCC2(COC2)C3)C[C@H]1C [Example 1357a]
4 | 96.1 | C=CC(=O)N1C[C@H](C)N(c2nc(=O)n3c4c(c(-c5ccc(F)cc5F)c(C(F)(F)F)cc24)SC[C@@H]3CN2C[C@@H]3C[C@H]2CO3)C[C@H]1C (atropisomer, axis not shown) [Example 1323, (3S,10R)-3-(((1S,4S)-2-oxa-5-azabicyclo[2.2.1]heptan-5-yl)methyl)-7-((2S,5R)-4-acryloyl-2,5-dimethylpiperazin-1-yl)-10-(2,4-difluorophenyl)-9-(trifluoromethyl)-2,3-dihydro-5H-[1,4]thiazino[2,3,4-ij]quinazolin-5-one]
5 | 78.2 | C=CC(=O)N1CCN(c2nc(=O)n3c4c(c(-c5cc(Cl)c(F)cc5F)c(C(F)(F)F)cc24)SCC2(COC2)C3)CC1 (atropisomer, axis not shown) [Example 1397, (S)-8′-(4-acryloylpiperazin-1-yl)-11′-(5-chloro-2,4-difluorophenyl)-10′-(trifluoromethyl)-2′H,4′H,6′H-spiro[oxetane-3,3′-[1,4]thiazepino[2,3,4-ij]quinazolin]-6′-one]
6 | 94.5 | C=CC(=O)N1[C@H](C)CN(c2nc(=O)n3c4c(c(-c5cc(Cl)c(F)cc5F)c(C(F)(F)F)cc24)SC[C@@H]3CN2C[C@@H]3C[C@H]2CO3)C[C@@H]1C (atropisomer, axis not shown) [Example 1331, (3S,10R)-3-(((1S,4S)-2-oxa-5-azabicyclo[2.2.1]heptan-5-yl)methyl)-7-((3S,5R)-4-acryloyl-3,5-dimethylpiperazin-1-yl)-10-(5-chloro-2,4-difluorophenyl)-9-(trifluoromethyl)-2,3-dihydro-5H-[1,4]thiazino[2,3,4-ij]quinazolin-5-one]
7 | 85.4 | C=CC(=O)N1[C@H](C)CN(c2nc(=O)n3c4c(c(-c5cccc6cnn(C)c56)c(C(F)(F)F)cc24)SC[C@@H]3CN2CCN(C3CC3)CC2)C[C@@H]1C (atropisomer, axis not shown) [Example 1412, (3S,10S)-7-((3S,5R)-4-acryloyl-3,5-dimethylpiperazin-1-yl)-3-((4-cyclopropylpiperazin-1-yl)methyl)-10-(1-methyl-1H-indazol-7-yl)-9-(trifluoromethyl)-2,3-dihydro-5H-[1,4]thiazino[2,3,4-ij]quinazolin-5-one]
8 | 97.4 | C=CC(=O)N1CCN(c2nc(=O)n3c4c(c(-c5cc(Cl)c(F)cc5F)c(C(F)(F)F)cc24)SC[C@@H]3CN2C[C@@H]3C[C@H]2CO3)CC1 (atropisomer, axis not shown) [Example 1341, (3S,10R)-3-(((1S,4S)-2-oxa-5-azabicyclo[2.2.1]heptan-5-yl)methyl)-7-(4-acryloylpiperazin-1-yl)-10-(5-chloro-2,4-difluorophenyl)-9-(trifluoromethyl)-2,3-dihydro-5H-[1,4]thiazino[2,3,4-ij]quinazolin-5-one]
9 | 82.3 | C=CC(=O)N1C[C@H](C)N(c2nc(=O)n3c4c(c(-c5ccc(F)cc5F)c(C(F)(F)F)cc24)SC[C@@H]3COCOC)C[C@H]1C (atropisomer, axis not shown) [Example 1326, (3S,10S)-7-((2S,5R)-4-acryloyl-3,5-dimethylpiperazin-1-yl)-10-(2,4-difluorophenyl)-3-((methoxymethoxy)methyl)-9-(trifluoromethyl)-2,3-dihydro-5H-[1,4]thiazino[2,3,4-ij]quinazolin-5-one]
10 | 91 | C=CC(=O)N1[C@H](C)CN(c2nc(=O)n3c4c(c(-c5cc(Cl)c(F)cc5F)c(C(F)(F)F)cc24)SCC(COC)(COC)C3)C[C@@H]1C (atropisomer, axis not shown) [Example 1421, (R)-8-((3S,5R)-4-acryloyl-3,5-dimethylpiperazin-1-yl)-11-(5-chloro-2,4-difluorophenyl)-3,3-bis(methoxymethyl)-10-(trifluoromethyl)-3,4-dihydro-2H,6H-[1,4]thiazepino[2,3,4-ij]quinazolin-6-one]
11 | 87 | C=CC(=O)N1[C@H](C)CN(c2nc(=O)n3c4c(c(-c5cc(Cl)c(F)cc5F)c(C(F)(F)F)cc24)SCC(CO)(CO)C3)C[C@@H]1C [Example 1437, 8-((3S,5R)-4-acryloyl-3,5-dimethylpiperazin-1-yl)-11-(5-chloro-2,4-difluorophenyl)-3,3-bis(hydroxymethyl)-10-(trifluoromethyl)-3,4-dihydro-2H,6H-[1,4]thiazepino[2,3,4-ij]quinazolin-6-one]
12 | 92.4 | C=CC(=O)N1CCN(c2nc(=O)n3c4c(c(-c5ccc(F)cc5F)c(C(F)(F)F)cc24)SC[C@@H]3COCOC)CC1 (atropisomer, axis not shown) [Example 1367, (3S,10R)-7-(4-acryloylpiperazin-1-yl)-10-(2,4-difluorophenyl)-3-((methoxymethoxy)methyl)-9-(trifluoromethyl)-2,3-dihydro-5H-[1,4]thiazino[2,3,4-ij]quinazolin-5-one]
13 | 68.7 | C=CC(=O)N1[C@H](C)CN(c2nc(=O)n3c4c(c(-c5cc(Cl)c(F)cc5F)c(C(F)(F)F)cc24)SC[C@@H]3CN2CCN(CC)CC2)C[C@@H]1C (atropisomer, axis not shown) [Example 1339]

Same assay, conditions: 10 uM compound, 60 min incubation

Row | % CAF 10 uM @ 60 min [%] | SMILES
14 | 46.8 | C=CC(=O)N1[C@H](C)CN(c2nc(=O)n3c4c(c(-c5ccc(F)c6cnn(C)c56)c(C(F)(F)F)cc24)SC[C@@H]3COC)C[C@@H]1C (atropisomer, axis not shown) [Example 1126, (3S,10S)-7-((3S,5R)-4-acryloyl-3,5-dimethylpiperazin-1-yl)-10-(4-fluoro-1-methyl-1H-indazol-7-yl)-3-(methoxymethyl)-9-(trifluoromethyl)-2,3-dihydro-5H-[1,4]thiazino [2,3,4-ij]quinazolin-5-one]

Same assay, conditions: 10 μM compound, after 1 hour

Row | CAF (% after 1 hour) [%] | SMILES
15 | 91 | C=CC(=O)N1[C@H](C)CN(c2nc(=O)n3c4c(c(-c5cc(Cl)c(F)cc5F)c(C(F)(F)F)cc24)SCC2(CN(CC(F)(F)F)C2)C3)C[C@@H]1C [Example 1241, 8′-((3S,5R)-4-acryloyl-3,5-dimethylpiperazin-1-yl)-11′-(5-chloro-2,4-difluorophenyl)-1-(2,2,2-trifluoroethyl)-10′-(trifluoromethyl)-2′H,4′H,6′H-spiro[azetidine-3,3′-[1,4]thiazepino[2,3,4-ij]quinazolin]-6′-one]
16 | 91 | C=CC(=O)N1[C@H](C)CN(c2nc(=O)n3c4c(c(-c5cc(Cl)c(F)cc5F)c(C(F)(F)F)cc24)SC[C@@H](NCC(F)(F)F)C3)C[C@@H]1C [Example 1240, (3S)-8-((3S,5R)-4-acryloyl-3,5-dimethylpiperazin-1-yl)-11-(5-chloro-2,4-difluorophenyl)-3-((2,2,2-trifluoroethyl)amino)-10-(trifluoromethyl)-3,4-dihydro-2H,6H-[1,4]thiazepino[2,3,4-ij]quinazolin-6-one]
17 | 38 | C=CC(=O)N1[C@H](C)CN(c2nc(=O)n3c4c(c(-c5cc(Cl)c(F)cc5F)c(C(F)(F)F)cc24)SC[C@@H](Oc2cc(C)on2)C3)C[C@@H]1C [Example 1231, (3S,11S)-8-((3S,5R)-4-acryloyl-3,5-dimethylpiperazin-1-yl)-11-(5-chloro-2,4-difluorophenyl)-3-((5-methylisoxazol-3-yl)oxy)-10-(trifluoromethyl)-3,4-dihydro-2H,6H-[1,4]thiazepino[2,3,4-ij]quinazolin-6-one]
18 | 95 | C=CC(=O)N1[C@H](C)CN(c2nc(=O)n3c4c(c(-c5ccc(F)cc5F)c(C(F)(F)F)cc24)SC[C@@H](OCC)C3)C[C@@H]1C [Example 1205, (3S)-8-((3S,5R)-4-acryloyl-3,5-dimethylpiperazin-1-yl)-11-(2,4-difluorophenyl)-3-ethoxy-10-(trifluoromethyl)-3,4-dihydro-2H,6H-[1,4]thiazepino[2,3,4-ij]quinazolin-6-one]

Same assay, conditions: after 60 min

Row | CAF (% binding after 60 min) [%] | SMILES
19 | 97 | C=CC(=O)N1CCN(c2nc(=O)n3c4c(c(-c5ccc(F)cc5)c(C(F)(F)F)cc24)SC[C@@H](OC)C3)CC1 [Example 1038, (S)-8-(4-acryloylpiperazin-1-yl)-11-(4-fluorophenyl)-3-methoxy-10-(trifluoromethyl)-3,4-dihydro-2H,6H-[1,4]thiazepino[2,3,4-ij]quinazolin-6-one]
20 | 96 | C=CC(=O)N1[C@H](C)CN(c2nc(=O)n3c4c(c(-c5ccc(F)cc5)c(Cl)cc24)SC[C@H](OC)C3)C[C@@H]1C [Example 1039, (R)-8-((3S,5R)-4-acryloyl-3,5-dimethylpiperazin-1-yl)-10-chloro-11-(4-fluorophenyl)-3-methoxy-3,4-dihydro-2H,6H-[1,4]thiazepino[2,3,4-ij]quinazolin-6-one]
